BigSolDB 2.1

CCCSc1ccc2nc(NC(=O)OC)[nH]c2c1
solubility (mole fraction)
Details | 278.15 K | 283.15 K | 288.15 K | 293.15 K | 298.15 K | 303.15 K | 308.15 K | 313.15 K | 318.15 K | 323.15 K
in acetone | 0.00151 | 0.0018 | 0.00213 | 0.00254 | 0.00297 | 0.00344 | 0.00402 | 0.00463 | 0.00535 | 0.00613
in isopropanol | 0.000106 | 0.00013 | 0.000158 | 0.000192 | 0.000229 | 0.000276 | 0.00033 | 0.000388 | 0.000453 | 0.000532
in methanol | 8.85e-05 | 0.000109 | 0.000132 | 0.000159 | 0.000193 | 0.00023 | 0.000273 | 0.000327 | 0.000381 | 0.000448
in water | 1.59e-07 | 2.16e-07 | 2.9e-07 | 3.99e-07 | 5.31e-07 | 6.93e-07 | 9.18e-07 | 1.19e-06 | 1.56e-06 | 1.98e-06
